ChEMBL document CHEMBL1201862, “PubChem BioAssay data set” (2004)
Activity calls are given as the source filed them.

Key:
[1] = viability of PTEN-deleted HCT116 cells – cell-based, HCT116 PTEN knockout, dose response (AID 1047); assay type: functional;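 further: HCT116 colon tumor cells with PTEN knocked out; cells exposed to compound for 60 hours before readout; potency for loss of cell viability measured by luminescence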
[2] = viability of HCT116 lacking mutant beta-catenin – cell-based, human colon tumor, dose response (AID 1045); assay type: functional;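 further: HCT116 colon tumor cells with beta catenin knocked out; cells exposed to compound for 60 hours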
Vero = assay: cells; assay type: functional; details: Chlorocebus sabaeus
[3] = target: Glucose-6-phosphate 1-dehydrogenase (Homo sapiens, UniProt P11413); assay: inhibition of Homo sapiens G6PD, dose series – biochemical, fluorescence, selectivity assay for P. falciparum G6PD inhibitor project, dose response (AID 504792); assay type: functional
[4] = target: T1, Corticotropin-releasing factor receptor 2/Corticotropin-releasing factor-binding protein (Homo sapiens, UniProt P24387+Q13324); assay: Dose Response confirmation of uHTS hits for small molecule antagonists of the CRF-binding protein and CRF-R2 receptor complex.; assay type: functional; details: read-out: IC50_Mean
T1 sequence (Q13324 whole entry): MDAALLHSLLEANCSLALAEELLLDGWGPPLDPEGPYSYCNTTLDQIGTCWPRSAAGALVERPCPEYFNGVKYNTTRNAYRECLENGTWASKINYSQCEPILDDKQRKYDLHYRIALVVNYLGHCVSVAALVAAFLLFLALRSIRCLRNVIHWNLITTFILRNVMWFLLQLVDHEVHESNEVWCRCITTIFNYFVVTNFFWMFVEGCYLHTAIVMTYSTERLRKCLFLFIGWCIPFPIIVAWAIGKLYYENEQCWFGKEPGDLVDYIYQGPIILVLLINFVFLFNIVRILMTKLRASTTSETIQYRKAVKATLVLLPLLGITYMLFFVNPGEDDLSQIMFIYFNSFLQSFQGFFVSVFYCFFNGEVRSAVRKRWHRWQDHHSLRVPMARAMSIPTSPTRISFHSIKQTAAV
T1 sequence (P24387 whole entry): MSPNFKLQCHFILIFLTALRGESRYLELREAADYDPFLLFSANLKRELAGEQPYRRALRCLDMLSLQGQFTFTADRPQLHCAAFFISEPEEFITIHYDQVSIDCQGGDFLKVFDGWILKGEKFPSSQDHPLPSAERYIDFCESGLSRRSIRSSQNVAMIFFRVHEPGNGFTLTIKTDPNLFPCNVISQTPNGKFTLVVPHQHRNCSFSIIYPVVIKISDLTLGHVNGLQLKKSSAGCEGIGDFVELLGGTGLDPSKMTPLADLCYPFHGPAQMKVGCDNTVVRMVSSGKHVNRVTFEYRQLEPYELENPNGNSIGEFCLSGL

[5] = target: T1, Corticotropin-releasing factor receptor 2/Corticotropin-releasing factor-binding protein; assay: activators of CRF receptor 2 with binding protein – uHTS hits, confirmation (AID 602473); assay type: functional; details: read-out: EC50_Mean
[6] = microbe, parasite or virus in culture; assay type: functional; details: Mycobacterium tuberculosis
Leucine aminopeptidase = target: T2, Leucine aminopeptidase (Plasmodium falciparum 3D7, UniProt Q8IL11); assay: P. falciparum M17LAP inhibitors, primary screen, biochemical, fluorogenic H-Leu-NHMec substrate, 1536-well (AID 1619); assay type: functional
T2 sequence (Q8IL11 whole entry): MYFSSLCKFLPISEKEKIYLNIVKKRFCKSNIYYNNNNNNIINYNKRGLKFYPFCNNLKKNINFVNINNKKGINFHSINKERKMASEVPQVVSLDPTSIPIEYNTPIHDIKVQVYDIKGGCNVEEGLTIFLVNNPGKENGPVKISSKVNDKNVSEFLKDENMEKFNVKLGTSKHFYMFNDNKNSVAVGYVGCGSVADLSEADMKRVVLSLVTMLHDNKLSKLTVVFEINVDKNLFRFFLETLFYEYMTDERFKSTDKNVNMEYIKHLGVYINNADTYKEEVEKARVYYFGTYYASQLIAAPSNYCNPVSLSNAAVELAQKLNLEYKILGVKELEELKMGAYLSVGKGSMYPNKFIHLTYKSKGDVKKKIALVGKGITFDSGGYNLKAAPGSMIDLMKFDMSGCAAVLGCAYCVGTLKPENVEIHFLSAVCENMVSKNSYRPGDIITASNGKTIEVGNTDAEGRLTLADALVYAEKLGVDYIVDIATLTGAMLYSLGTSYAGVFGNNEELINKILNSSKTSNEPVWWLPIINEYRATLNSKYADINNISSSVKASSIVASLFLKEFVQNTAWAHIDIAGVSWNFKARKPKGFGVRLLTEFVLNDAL

[7] = Trypanosoma cruzi growth suppression in host cells – NIH3T3 host cells, beta-gal luminescence, confirmation (AID 2044); assay type: functional, cell-based;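 further: intracellular parasites grown in NIH/3T3 mouse fibroblasts as host cells; luminescent beta-galactosidase reporter signal from transgenic T. cruzi replicating inside host cells; inhibitors lower the luminescence signal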
[8] = NIH3T3 cell viability loss – ATP luminescence, mouse fibroblasts, counter-screen, dose response (AID 2010); assay type: functional, cell-based;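 further: cells exposed to compound for about 90 hours before reading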
[9] = HIV-1 AD8 envelope cell-cell fusion blockers – cherry-pick, dose response (AID 652062); assay type: functional, cell-based;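 further: luciferase signal from cell-cell fusion driven by HIV-1 clade B AD8 Env; potency is for inhibitors of fusion seen as a drop in luminescence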
HEK293 = assay: EBV LMP1 TES2 canonical NF-kB signalling blockers – cell-based, HEK293, luciferase, cherry-pick, dose response (AID 588343); assay type: functional; details: Homo sapiens
Coagulation factor XII = target: T3, Coagulation factor XII (Homo sapiens, UniProt P00748); assay type: functional;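 further: activated factor XIIa alpha cleaving a fluorogenic AMC peptide substrate; inhibitor potency from loss of enzyme activity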
T3 sequence (P00748 whole entry): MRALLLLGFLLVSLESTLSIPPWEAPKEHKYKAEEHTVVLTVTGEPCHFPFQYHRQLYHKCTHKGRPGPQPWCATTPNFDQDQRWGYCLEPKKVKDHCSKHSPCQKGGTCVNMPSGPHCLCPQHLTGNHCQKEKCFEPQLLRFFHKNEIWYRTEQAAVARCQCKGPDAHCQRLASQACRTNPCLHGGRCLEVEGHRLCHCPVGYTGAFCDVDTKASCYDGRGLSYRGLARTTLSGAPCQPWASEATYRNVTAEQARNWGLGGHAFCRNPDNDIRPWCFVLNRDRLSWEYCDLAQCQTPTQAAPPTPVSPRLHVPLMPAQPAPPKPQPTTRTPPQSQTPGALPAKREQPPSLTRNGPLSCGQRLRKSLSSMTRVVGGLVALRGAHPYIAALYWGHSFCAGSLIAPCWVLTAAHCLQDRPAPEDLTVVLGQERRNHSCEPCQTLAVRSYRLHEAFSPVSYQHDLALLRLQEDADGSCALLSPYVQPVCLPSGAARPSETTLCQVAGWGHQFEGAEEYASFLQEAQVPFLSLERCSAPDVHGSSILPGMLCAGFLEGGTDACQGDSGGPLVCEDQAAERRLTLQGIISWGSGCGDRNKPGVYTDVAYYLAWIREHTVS

cells = assay type: functional
[10] = target: T4, Heat shock factor protein 1 (Mus musculus, UniProt P38532); assay: decrease of HSF1-responsive luciferase luminescence – cell-based, NIH3T3, dose retest, confirmation (AID 2382); assay type: functional;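 further: NIH3T3 fibroblasts with HSF1-driven luciferase reporter stressed by proteasome inhibitor MG132; luminescence from HSF1-driven luciferase expression after 8 hours of MG132 stress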
T4 sequence (P38532 whole entry): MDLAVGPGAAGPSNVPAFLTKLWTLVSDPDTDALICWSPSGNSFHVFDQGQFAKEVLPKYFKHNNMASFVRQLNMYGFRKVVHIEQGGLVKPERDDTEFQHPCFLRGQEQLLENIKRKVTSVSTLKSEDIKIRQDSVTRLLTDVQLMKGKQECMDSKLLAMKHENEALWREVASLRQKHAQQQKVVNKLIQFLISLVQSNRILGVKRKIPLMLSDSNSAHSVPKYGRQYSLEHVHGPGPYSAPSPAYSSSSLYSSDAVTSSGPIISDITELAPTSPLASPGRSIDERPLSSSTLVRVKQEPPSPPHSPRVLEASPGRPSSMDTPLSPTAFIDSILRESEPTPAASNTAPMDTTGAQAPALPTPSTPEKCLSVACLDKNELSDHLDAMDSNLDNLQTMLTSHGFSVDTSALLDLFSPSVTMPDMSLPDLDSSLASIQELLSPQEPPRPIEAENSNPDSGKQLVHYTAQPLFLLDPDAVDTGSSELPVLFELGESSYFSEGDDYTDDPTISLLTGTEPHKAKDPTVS

[11] = Luminescence Cell-Based Dose Retest to Confirm Inhibitors of Cancer Stem Cells. [Related pubchem assays (depositor defined):AID2717, AID2721]; assay type: functional; details: Homo sapiens
[12] = NIH-3T3 fibroblast cytotoxicity, dose response, cytotoxicity control, cell-based, fluorescence, Alamar Blue, secondary assay (AID 2327); assay type: functional;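 further: NIH-3T3 mouse fibroblasts cultured with fluconazole at 8 µg/mL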
[13] = viability of uninfected HEp-2 cells – cell-based, HTS, cytotoxicity control for RSV inhibitor project, dose response (AID 2410); assay type: functional; details: human respiratory syncytial virus
[14] = fluconazole-exposed Candida albicans growth modulators – fluorescence, retest, confirmation (AID 2467); assay type: functional, cell-based
[15] = target: Heat shock protein HSP 90-alpha (Homo sapiens, UniProt P07900); assay type: functional, organism-based
Cytochrome P450 2C9 = Cytochrome P450 2C9 (Homo sapiens, UniProt P11712)
Aminopeptidase N = target: T5, Aminopeptidase N (Plasmodium falciparum FcB1/Columbia, UniProt O96935); assay: malaria alanyl aminopeptidase activity blockers – biochemical, fluorogenic H-Leu-NHMec substrate, 1536-well (AID 1445); design: species or system Plasmodium falciparum 3D7, 3D7
T5 sequence (O96935 whole entry): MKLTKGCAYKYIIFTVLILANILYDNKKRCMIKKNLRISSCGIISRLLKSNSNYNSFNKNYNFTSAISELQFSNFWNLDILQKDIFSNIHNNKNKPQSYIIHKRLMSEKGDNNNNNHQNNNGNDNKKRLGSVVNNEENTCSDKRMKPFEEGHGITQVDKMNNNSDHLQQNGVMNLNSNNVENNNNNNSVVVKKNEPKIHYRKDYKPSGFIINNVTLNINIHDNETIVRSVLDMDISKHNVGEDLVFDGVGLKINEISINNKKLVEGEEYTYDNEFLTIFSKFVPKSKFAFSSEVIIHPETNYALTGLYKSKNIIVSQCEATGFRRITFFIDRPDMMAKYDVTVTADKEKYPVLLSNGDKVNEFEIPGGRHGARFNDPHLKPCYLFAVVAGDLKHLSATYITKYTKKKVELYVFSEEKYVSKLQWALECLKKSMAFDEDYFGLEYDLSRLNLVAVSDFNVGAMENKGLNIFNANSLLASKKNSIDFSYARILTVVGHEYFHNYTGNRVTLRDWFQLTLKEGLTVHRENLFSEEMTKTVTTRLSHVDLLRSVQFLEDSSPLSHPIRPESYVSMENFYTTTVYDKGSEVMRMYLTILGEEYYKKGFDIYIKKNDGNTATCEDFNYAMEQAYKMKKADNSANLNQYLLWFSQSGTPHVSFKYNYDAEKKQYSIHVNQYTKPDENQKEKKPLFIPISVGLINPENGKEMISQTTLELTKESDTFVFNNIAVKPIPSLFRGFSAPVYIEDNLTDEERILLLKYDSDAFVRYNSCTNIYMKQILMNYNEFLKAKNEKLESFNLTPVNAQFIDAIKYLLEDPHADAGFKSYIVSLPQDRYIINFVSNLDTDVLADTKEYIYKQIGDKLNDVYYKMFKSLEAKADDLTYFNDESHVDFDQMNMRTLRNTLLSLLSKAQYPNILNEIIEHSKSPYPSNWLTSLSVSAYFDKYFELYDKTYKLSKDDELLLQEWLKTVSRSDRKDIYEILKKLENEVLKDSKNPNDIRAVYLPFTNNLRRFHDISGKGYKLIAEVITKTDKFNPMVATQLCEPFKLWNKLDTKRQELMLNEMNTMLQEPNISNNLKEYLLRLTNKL

Cytochrome P450 2D6 = Cytochrome P450 2D6 (Homo sapiens, UniProt P10635);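 further: CYP2D6 member of a cytochrome P450 panel assay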
Cytochrome P450 2D6, sequence (P10635 whole entry): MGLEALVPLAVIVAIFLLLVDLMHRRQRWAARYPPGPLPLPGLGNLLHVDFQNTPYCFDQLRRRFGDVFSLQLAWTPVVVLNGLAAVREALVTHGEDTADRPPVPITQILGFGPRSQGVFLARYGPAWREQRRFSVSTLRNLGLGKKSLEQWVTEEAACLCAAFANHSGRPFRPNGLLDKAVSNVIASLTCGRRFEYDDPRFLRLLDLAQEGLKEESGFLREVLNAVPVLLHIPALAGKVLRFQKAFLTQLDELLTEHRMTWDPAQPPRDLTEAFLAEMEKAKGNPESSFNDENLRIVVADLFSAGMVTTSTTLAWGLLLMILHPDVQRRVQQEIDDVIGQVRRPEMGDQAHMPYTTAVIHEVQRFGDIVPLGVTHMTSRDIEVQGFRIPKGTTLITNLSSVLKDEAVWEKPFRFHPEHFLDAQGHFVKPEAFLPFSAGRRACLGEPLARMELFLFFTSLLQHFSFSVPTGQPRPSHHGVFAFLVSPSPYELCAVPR

Glucose-6-phosphate 1-dehydrogenase, sequence (P11413 whole entry): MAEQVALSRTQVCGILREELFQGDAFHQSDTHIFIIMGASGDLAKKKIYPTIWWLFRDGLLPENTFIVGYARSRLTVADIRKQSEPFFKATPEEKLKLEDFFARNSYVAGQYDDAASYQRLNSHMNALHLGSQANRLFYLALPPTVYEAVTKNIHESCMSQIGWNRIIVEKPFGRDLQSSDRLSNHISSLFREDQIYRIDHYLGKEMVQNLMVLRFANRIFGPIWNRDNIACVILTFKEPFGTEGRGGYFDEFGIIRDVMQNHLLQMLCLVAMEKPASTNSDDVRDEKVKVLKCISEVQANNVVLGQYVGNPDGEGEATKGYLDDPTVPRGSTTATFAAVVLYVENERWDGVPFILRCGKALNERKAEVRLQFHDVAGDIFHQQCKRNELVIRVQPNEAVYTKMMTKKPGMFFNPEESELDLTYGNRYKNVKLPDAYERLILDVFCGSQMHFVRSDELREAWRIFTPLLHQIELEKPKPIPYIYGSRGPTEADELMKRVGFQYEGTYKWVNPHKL
Cytochrome P450 2C9, sequence (P11712 whole entry): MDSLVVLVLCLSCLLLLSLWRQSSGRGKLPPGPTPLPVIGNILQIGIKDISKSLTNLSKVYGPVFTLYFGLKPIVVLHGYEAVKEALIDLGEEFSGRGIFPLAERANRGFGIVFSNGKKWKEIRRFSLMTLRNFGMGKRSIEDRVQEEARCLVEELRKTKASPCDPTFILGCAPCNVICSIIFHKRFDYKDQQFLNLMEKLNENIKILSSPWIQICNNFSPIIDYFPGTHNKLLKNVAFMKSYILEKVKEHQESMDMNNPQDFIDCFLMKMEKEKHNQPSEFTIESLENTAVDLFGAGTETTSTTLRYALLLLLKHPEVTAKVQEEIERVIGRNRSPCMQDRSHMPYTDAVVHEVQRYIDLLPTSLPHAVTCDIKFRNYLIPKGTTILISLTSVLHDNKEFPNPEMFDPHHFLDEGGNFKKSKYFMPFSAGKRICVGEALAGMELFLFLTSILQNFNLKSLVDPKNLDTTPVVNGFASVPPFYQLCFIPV

O=C(CCS(=O)(=O)c1ccccc1)Nc1nc2c(s1)COc1ccccc1-2
EC50 [1]: 18.7 µM (active) | EC50 [2]: 14.1 µM (active) | CC50 (Vero): > 25 µM (active)

O=C(Nc1nnc(S(=O)(=O)N2CCCCC2)s1)c1ccc(Cl)cc1
IC50 [3]: > 80 µM (inactive) | IC50 [4]: > 47.1 µM (inactive) | EC50 [5]: > 53 µM (inactive)

CCC(=O)NC(=S)Nc1ccc(NC(=O)COc2ccc(Cl)cc2Cl)cc1
CC50 [6]: 39.6 µM (active)

O=C(CSc1nnc(NC(=O)c2c(F)cccc2F)s1)Nc1ccc(F)cc1
IC50 (Leucine aminopeptidase): 32.3 µM (active)

COc1c(Cl)cc(Cl)cc1C(=O)Nc1ccc(CN2CCCCC2)cc1
EC50 [7]: 3 µM (active) | EC50 [8]: > 60 µM (not active) | CC50 (Vero): > 25 µM (active)

Cc1onc(-c2ccccc2)c1C(=O)Nc1ccc(Br)cc1Cl
AC50 [9]: 3.43 µM (active)

CNS(=O)(=O)c1cccc(C(=O)OCC(=O)c2ccc3c(c2)OCCO3)c1
AC50 (HEK293): 8.57 µM (active)

COc1cc(C(=O)ON=C2C=C(C)C(=O)C(C)=C2)cc(OC)c1OC
IC50 [3]: > 80 µM (inactive) | IC50 (Coagulation factor XII): 0.533 µM (active) | IC50 (cells): 40.2 µM (active)

CC(c1ccccc1)N1CCN(C(=O)CCl)CC1 (stereo not drawn)
EC50 [10]: 43.8 µM (active) | CC50 [6]: 17.9 µM (active) | CC50 (Vero): 9.03 µM (active)

C=CCn1cccc(/C=C/C(=O)c2ccc(C(C)(C)C)cc2)c1=S
CC50 [6]: 10.3 µM (active) | EC50 [1]: 4.04 µM (active) | EC50 [2]: 2.56 µM (active) | AC50 [11]: 5.64 µM (active)

N#Cc1ncc(N=Cc2ccc(N(CCCl)CCCl)cc2)s1
AC50 (HEK293): 1.22 µM (active)

O=S(=O)(c1ccc(NC(=S)NC23CC4CC(CC(C4)C2)C3)cc1)N1CCCCC1
CC50 (Vero): 8.76 µM (active)

O=C(N/N=C/c1ccccn1)c1cc(-c2ccc(Cl)cc2)nc2ccccc12
EC50 [12]: 20.6 µM (active) | CC50 [13]: 11.8 µM (active) | EC50 [14]: 1.06 µM (active) | AC50 [15]: 7.9 µM (active) | CC50 (Vero): 14.2 µM (active)

CSc1ccc(N/N=C(/C#N)S(=O)(=O)C(C)(C)C)cc1
IC50 (Leucine aminopeptidase): 30.6 µM (active)

O=C(O)c1ccc(N/N=C/c2ccc(C(F)(F)F)cc2)cc1
IC50 (Leucine aminopeptidase): 46.3 µM (active)

Cc1ccc(C(=O)N/N=C/c2sc(=O)n(Cc3cccc(C(=O)O)c3)c2Cl)cc1
IC50 (Leucine aminopeptidase): 17.8 µM (active) | AC50 (Cytochrome P450 2C9): 12.6 µM (inconclusive)

CCCCOc1ccc(CC(=O)NO)cc1 [BUFEXAMAC]
IC50 (Leucine aminopeptidase): < 1 µM (active) | IC50 (Aminopeptidase N): 81.2 µM (active) | EC50 [10]: > 195 µM (not active) | AC50 (Cytochrome P450 2D6): 10 µM (inconclusive)
